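GI50 = concentration required for 50% inhibition of growth. The concentration for full growth arrest is given as TGI.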
How the values were obtained:
Test in all cases: DTP human tumour cell line panel, 384-well format
SNB-75 CNS = system: SNB-75 CNS
LOX IMVI melanoma = system: LOX IMVI melanoma
SK-OV-3 ovarian = system: SK-OV-3 ovarian
SK-MEL-5 melanoma = system: SK-MEL-5 melanoma
SNB-19 CNS = system: SNB-19 CNS
SK-MEL-28 melanoma = system: SK-MEL-28 melanoma
MDA-MB-231 breast = system: MDA-MB-231 breast
NCI-H460 NSCLC = system: NCI-H460 NSCLC
SF-295 CNS = system: SF-295 CNS
HCT-116 colon = system: HCT-116 colon
RPMI-8226 leukemia = system: RPMI-8226 leukemia
HCC-2998 colon = system: HCC-2998 colon
786-0 renal = system: 786-0 renal

For `C[C@@H](O)[C@H](NC(=O)N[C@@H](CC(N)=O)c1nc([C@@H](N)CO)no1)C(=O)O`, the GI50 (SNB-75 CNS) was greater than 100 µM, the TGI (SNB-75 CNS) was greater than 100 µM and the GI50 (LOX IMVI melanoma) was greater than 100 µM. The TGI (LOX IMVI melanoma) was greater than 100 µM, the GI50 (SK-OV-3 ovarian) was greater than 100 µM and the TGI (SK-OV-3 ovarian) was greater than 100 µM. The GI50 (SK-MEL-5 melanoma) was greater than 100 µM, the TGI (SK-MEL-5 melanoma) was greater than 100 µM and the GI50 (SNB-19 CNS) was greater than 100 µM. It also gave a TGI (SNB-19 CNS) greater than 100 µM, a GI50 (SK-MEL-28 melanoma) greater than 100 µM and a TGI (SK-MEL-28 melanoma) greater than 100 µM. For the same molecule, the GI50 (MDA-MB-231 breast) was greater than 100 µM, the TGI (MDA-MB-231 breast) was greater than 100 µM and the GI50 (NCI-H460 NSCLC) was greater than 100 µM. For the same molecule, the TGI (NCI-H460 NSCLC) was greater than 100 µM, the GI50 (SF-295 CNS) was greater than 100 µM and the TGI (SF-295 CNS) was greater than 100 µM. It also gave a GI50 (HCT-116 colon) greater than 100 µM, a TGI (HCT-116 colon) greater than 100 µM and a GI50 (RPMI-8226 leukemia) greater than 100 µM. It also gave a TGI (RPMI-8226 leukemia) greater than 100 µM, a GI50 (HCC-2998 colon) greater than 100 µM and a TGI (HCC-2998 colon) greater than 100 µM. For the same molecule, the GI50 (786-0 renal) was greater than 100 µM and the TGI (786-0 renal) was greater than 100 µM.

Source: PubChem BioAssay (NCI)
